Test results taken from publication PMC9369311, “Examination of Intracellular GPCR-Mediated Signaling with High Temporal Resolution” (International Journal of Molecular Sciences, 2022).

How the values were obtained:
DmOctβ1 receptor = target: T1, DmOctβ1 receptor (Drosophila melanogaster, UniProt Q9VCZ3); assay: Stopped-flow flash photolysis of caged octopamine in Fluo-4-loaded flpTM-DmOctβ1 cells; format: cell-based; conditions: for response time after UV-flash: 10 µM caged compound, 50 ms flash, 100 µM IBMX
T1 construct: expressed in transfected cells; host or cells: flpTM cells (HEK293 flpIn, Invitrogen #750-07, carrying the CNGA2 variant)
T1 sequence (Q9VCZ3 1-508): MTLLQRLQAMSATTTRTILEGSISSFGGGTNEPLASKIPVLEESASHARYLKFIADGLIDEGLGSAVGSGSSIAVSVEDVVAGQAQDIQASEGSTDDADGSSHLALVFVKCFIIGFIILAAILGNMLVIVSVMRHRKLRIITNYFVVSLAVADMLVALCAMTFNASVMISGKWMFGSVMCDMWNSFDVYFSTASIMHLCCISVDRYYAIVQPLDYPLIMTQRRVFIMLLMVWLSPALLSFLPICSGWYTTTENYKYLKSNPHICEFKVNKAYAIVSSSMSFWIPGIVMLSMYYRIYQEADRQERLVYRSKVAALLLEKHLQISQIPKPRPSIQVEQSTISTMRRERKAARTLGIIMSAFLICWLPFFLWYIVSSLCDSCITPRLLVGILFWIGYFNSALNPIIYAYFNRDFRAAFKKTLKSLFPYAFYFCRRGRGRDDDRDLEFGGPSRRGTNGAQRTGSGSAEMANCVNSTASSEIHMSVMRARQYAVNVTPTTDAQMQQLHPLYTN
Text: Neutral density filters that regulate the transmission of light (5%, 25%, 50%, 80%, 100%) were installed, allowing application of different light intensities.
In the previous stopped-flow experiments, we initiated the DmOctβ1 receptor-activated reaction cascade by mixing cells with increasing concentrations of octopamine. Now, we used a similar strategy but substituted the biogenic amine for a constant concentration of octopamine fused to a coumarin-based cage group ({8-[bis(carboxymethyl)aminomethyl]-6-bromo-7-hydroxycoumarin-4-yl}methoxycarbon-yl; BBHCMOC-octopamine) from which the biologically active octopamine was released by light flashes. The Fluo-4-loaded flpTM-DmOctβ1 cells were mixed with a final concentration of 10 µM BBHCMOC-octopamine in the cuvette of the stopped-flow apparatus. After 2 s, a UV-flash was triggered for 50 ms and the fluorescence intensities were recorded. The time when triggering the light flash was defined as time point t = 0. Different light intensities were successively applied (5%, 25%, 50%, 80%, 100% intensity). To avoid fluctuations in the [cAMP]i due to cell-endogenous phosphodiesterase activity, the experiments were performed in the presence of 100 µM IBMX. Figure 7 summarizes the results that were obtained with BBHCMOC-octopamine.
For the photolysis of the caged compounds with ultraviolet (UV)-light, a Xe-flash lamp (JML-C2; Rapp Opto Electronics, Wedel, Germany) was coupled to the cuvette via an UV-light permeable light guide (Schott). A UV-2 interference filter was placed between the Xe-flash lamp and light guide to select for the UV-light needed for the photolysis of the caged compounds. Additionally, it prevents the photomultiplier from being hit by light that is able to pass the emission filter. […] To maximize the detection of the emission light, a test solution containing 50 nM of fluorescein in ES was added to the cuvette and the light guide was fixed to the Xe/Hg-lamp at a position where the photomultiplier detected maximal intensity.

[1] = in vitro; read-out: dissociation constant (Kd) for Ca2+; cited from earlier work
CNG channel (A2 homomer) = conditions: read-out: EC50 for opening the CNG channel, electrophysiological experiments, ref Ludwig et al., 1990; cited from earlier work

Q: With `O=C(O)CN(CC(=O)O)Cc1c(O)c(Br)cc2c(COC(=O)NCC(O)c3ccc(O)cc3)cc(=O)oc12` (centres unmarked) [BBHCMOC-octopamine] as the compound, how does the “response time after UV-flash” value (DmOctβ1 receptor; 5% light intensity) read?
A: Its value is “about 16 s”.

Q: What about the “response time after UV-flash” value (DmOctβ1 receptor; 100% light intensity) of the same compound?
A: The value was 6 s and ≈ 6 s.

Q: What about the “octopamine released by photolysis” value (DmOctβ1 receptor; from 10 µM BBHCMOC-octopamine, based on quantum yield) of the same compound?
A: The value was “approximately 1 µM”.

Q: With `Cc1ccc(N(CC(=O)O)CC(=O)O)c(OCCOc2cc(-c3c4cc(F)c(=O)cc-4oc4cc(O)c(F)cc34)ccc2N(CC(=O)O)CC(=O)O)c1` [Fluo-4] as the compound, how does the Kd [1] read?
A: The Kd was 345 nM.

Q: Which EC50 (CNG channel (A2 homomer)) does the source give for `Nc1ncnc2c1ncn2[C@@H]1O[C@@H]2COP(=O)(O)O[C@H]2[C@H]1O` [cAMP, cyclic adenosine monophosphate] here?
A: The EC50 was roughly 2000 nM.
